Test results: patent US20110306606A1, “NOVEL 2,6-SUBSTITUTED-3-NITROPYRIDINE DERIVATIVE, METHOD FOR PREPARING SAME, AND PHARMACEUTICAL COMPOSITION INCLUDING SAME” (priority 2008, published 2011)
Like-named read-outs stand apart in the source and are kept apart here.

Key:
[1] = test system: formation of osteoclasts in co-culture of bone marrow cells and osteoblasts; assay: Osteoclastogenesis inhibition via co-culture system (TRAP staining); type: cell-based, mice; conditions: 1 μM compound, 7 days co-culture, TRAP-positive multinucleated osteoclasts vs vehicle control; for inhibition at 1 µM: Mus musculus, Osteoclast, 168 h
Experimental: Osteoclastogenesis inhibitory effects of the compounds of the present invention were evaluated via a co-culture system (Reference: Endocrinology 137(1996), 2187 to 2190, E. Jimi et al.). A specific experimental method is as follows.
1) Preparation of Bone Marrow Cells and Osteoblasts
Femora and tibia were aseptically dissected from 6 to 8-week-old male ddY mice to harvest bone marrow cells by a conventional method using a syringe. In brief, tissues were removed from the dissected bone, the bone ends were cut off with scissors, and the bone marrow was isolated by pushing a medium-containing syringe (23G) against the one end of the cut bone. The isolated bone marrow was subjected to repeated piston movement of a syringe such that single cells were obtained (Reference: Endocrinology 123(1988), 2600 to 2602, Takahashi et al.). After removal of red blood cells within the bone marrow, the bone marrow cells recovered by centrifugation were placed in an α-MEM supplemented with 10% fetal bovine serum (FBS), followed by counting of nucleated cells and then were immediately used for a co-culture system.
2) Osteoclastogenesis Inhibition Experiment Via Co-Culture System
As the medium used for a co-culture system, a differentiation medium with the addition of differentiation factors 1α,25-dihydroxyvitamin D3 (10^−8M) and dexamethasone (10^−8M) to a-MEM supplemented with 10% FBS was used for the induction of osteoclastogenesis. First, the compounds dissolved in dimethyl sulfoxide (DMSO) at a concentration of 1 mM were diluted to 2 μM using the above-mentioned differentiation medium. As a vehicle control group, 0.2% (v/v) DMSO was added to the medium. 100 μL/well of each medium was added to 96-well plates. In addition, the above prepared bone marrow cells and osteoblasts were plated onto 96-well plates at a density of 1×10^5 cells/50 μL/well and 3×10^3 cells/50 μL/well, respectively. The total volume/well was 200 μL and the final compound concentration was 1 μM. The control group was 0.1% DMSO. The cells were cultured with exchange of the culture media with fresh media containing differentiation factors and test materials at an interval of 2 to 3 days.
7 days after culturing of cells, the formation of multinucleated osteoclasts was confirmed by microscopic examination, the medium was removed from the wells and then the cells were fixed in a 10% phosphate-buffered formalin solution. The degree of formation of mature osteoclasts was measured taking advantage of the characteristics of osteoclasts showing a positive reaction to a tartrate-resistant acid phosphatase (TRAP) staining solution. The TRAP staining solution was prepared in a manner such that naphthol AS-MS phosphate as a substrate and a coloring agent (Fast Red Violet LB salt) were dissolved in N,N-dimethylformamide, and a 0.1N NaHCO3 buffer solution containing 50 mM of tartaric acid was added thereto. Among the TRAP-positive cells under a light microscope, multinucleated osteoclasts having 6 to 7 nuclei were regarded as mature osteoclasts.
The degree of inhibition of osteoclastogenesis was calculated according to the following equation 1. The results are summarized in Table 27 below (Experiments were carried out for 4 wells/experimental group (n=4), and the results are given in terms of mean±standard deviation)
Inhibition of osteoclastogenesis(%)=(1−numbers of osteoclasts observed in experimental group/numbers of osteoclasts observed in vehicle control group)×100(%) [Equation 1]

[2] = test system: Osteoblasts (Calvarial cells); conditions: ICR, mouse, 72 h, 1 μM
[3] = test system: Osteoblasts (Calvarial cells); assay: Alkaline phosphatase (ALP) activity in osteoblasts (Calvarial cells); type: cell-based, mice; conditions: 1 μM compound, 3 days
Experimental: Differentiation and activity of osteoblasts were indirectly evaluated by measuring an ALP activity having a close relationship with osteogenesis.
Osteoblasts (Calvarial cells) prepared in Experimental Example 1 and MC3T3-E1 cells (available from RIKEN Cell Bank, Japan) were collected in α-MEM supplemented with 10% FBS, followed by cell counting. The cells were dispensed into 24-well cultureware at a density of 2×10^4 cells/well. After culturing of the cells for 24 hours, the culture media were discarded and replaced with fresh media in which test compounds were diluted to a concentration of 1 μM (1 mL/well). In addition, the vehicle control group containing 0.1% DMSO was also treated. […] When the experiment was terminated, the supernatant was removed and the cells were washed three times with cold phosphate buffer at 4°. 0.2% Triton X-100 was added to the washed cells which were then subjected to three cycles of freezing at −70° and thawing at room temperature for the complete lysis of cells. The cell extracts were pooled and centrifuged to collect the cell supernatant which was used for the measurement of ALP activity and proteins. The protein concentration was measured using a BCA assay kit (manufactured by Sigma-Aldrich). For the measurement of ALP activity, p-nitrophenylphosphate was added to the cell supernatant which was then incubated at 37° for 30 minutes, and the reaction was terminated with the addition of 50 μL of 0.2N sodium hydroxide. The standard curve was plotted at the absorbance of 405 nm using p-nitrophenol as a standard material and then the absorbance of test materials thus reacted was measured to determine the production amount of p-nitrophenol.
The ALP activity was calculated by dividing the amount of p-nitrophenol produced from each test material by the protein amount and the reaction time. Therefore, the unit of ALP activity was given in terms of p-nitrophenol/μg protein/min. The results are given in Tables 28-1 and 28-2 where the ALP activity unit of each test material was given in terms of % change through the comparison between the individual test materials and the vehicle control group.

[4] = test system: Osteoblasts (Calvarial cells); assay: Cytotoxicity test (MTT); conditions: 1 μM compound, 72 hours, in comparison with vehicle control

Compound | inhibition at 1 µM [1] [%] | Cell viability (%) Calvarial cell [2] [%] | Osteoclastogenesis inhibition (%) 1 μM [1] [%] | ALP activity (1 μM, % of Control) Calvarial cell [3] | Cell viability (%) Calvarial cell [4] [%]
Nc1ccc(Nc2nc(NCc3ccncc3)ccc2[N+](=O)[O-])cc1 [Compound 66, 2-[4-(amino)phenylamino]-6-[(4-pyridyl)methylamino]-3-nitropyridine] | 65 | 107 |  |  | 
CC(C)c1nccn1-c1ccc([N+](=O)[O-])c(Nc2ccc(-n3ccnc3)cc2)n1 [Compound 92, 2-[4-(imidazol-1-yl)phenylamino]-6-[(2-isopropyl)imidazol-1-yl]-3-nitropyridine] | 64 | 101 |  |  | 
O=[N+]([O-])c1ccc(NCc2cccnc2)nc1Nc1ccc(-n2ccnc2)cc1 [Compound 93, 2-[4-(imidazol-1-yl)phenylamino]-6-[(3-pyridyl)methylamino]-3-nitropyridine] | 66 | 98 |  |  | 
Cc1nc(-c2ccc(Nc3nc(NCC(C)C)ccc3[N+](=O)[O-])cc2)cs1 [Compound 134, 2-[4-(2-methylthiazol-4-yl)phenylamino]-6-(isobutylamino)-3-nitropyridine] | 61 | 93 |  |  | 
CCN(CCO)c1ccc([N+](=O)[O-])c(Nc2ccc(-c3csc(C)n3)cc2)n1 [Compound 141, 2-[4-(2-methylthiazol-4-yl)phenylamino]-6-[(N-ethyl-2-hydroxy)ethylamino]-3-nitropyridine] |  |  | 82 | 129 % of Control | 102
Cc1nc(-c2ccc(Nc3nc(N4CCNCC4)ccc3[N+](=O)[O-])cc2)cs1 [Compound 143, 2-[4-(2-methylthiazol-4-yl)phenylamino]-6-(piperazin-1-yl)-3-nitropyridine] | 99 | 85 |  |  | 
Cc1nc(-c2ccc(Nc3nc(N4CCC(N)CC4)ccc3[N+](=O)[O-])cc2)cs1 [Compound 144, 2-[4-(2-methylthiazol-4-yl)phenylamino]-6-(4-aminopiperidino)-3-nitropyridine] | 100 | 35 |  |  | 
CNc1ccc([N+](=O)[O-])c(Nc2ccc(-c3csc(C4CCCCC4)n3)cc2)n1 [Compound 151, 2-[4-(2-cyclohexylthiazol-4-yl)phenylamino]-6-(methylamino)-3-nitropyridine] | 70 | 101 |  |  | 
CC(C)Nc1ccc([N+](=O)[O-])c(Nc2ccc(-c3csc(C4CCCCC4)n3)cc2)n1 [Compound 152, 2-[4-(2-cyclohexylthiazol-4-yl)phenylamino]-6-(isopropylamino)-3-nitropyridine] | 85 | 105 |  |  | 
CC(C)CNc1ccc([N+](=O)[O-])c(Nc2ccc(-c3csc(C4CCCCC4)n3)cc2)n1 [Compound 153, 2-[4-(2-cyclohexylthiazol-4-yl)phenylamino]-6-(isobutylamino)-3-nitropyridine] | 78 | 107 |  |  | 
CC(C)(C)Nc1ccc([N+](=O)[O-])c(Nc2ccc(-c3csc(C4CCCCC4)n3)cc2)n1 [Compound 154, 2-[4-(2-cyclohexylthiazol-4-yl)phenylamino]-6-(t-butylamino)-3-nitropyridine] | 78 | 116 |  |  | 
O=[N+]([O-])c1ccc(NCc2ccncc2)nc1Nc1ccc(-c2csc(C3CCCCC3)n2)cc1 [Compound 163, 2-[4-(2-cyclohexylthiazol-4-yl)phenylamino]-6-[(4-pyridyl)methylamino]-3-nitropyridine] | 67 | 99 |  |  | 
CC(C)CNc1ccc([N+](=O)[O-])c(Nc2ccc(N3CCOCC3)c(F)c2)n1 [Compound 193, 2-[(3-fluoro-4-morpholino)phenylamino]-6-(isobutylamino)-3-nitropyridine] |  |  | 81 | 114 % of Control | 98
CC(C)(C)Nc1ccc([N+](=O)[O-])c(Nc2ccc(N3CCOCC3)c(F)c2)n1 [Compound 199, 2-[(3-fluoro-4-morpholino)phenylamino]-6-(t-butylamino)-3-nitropyridine] |  |  | 67 | 118 % of Control | 118
O=[N+]([O-])c1ccc(N2CCNCC2)nc1Nc1ccc(N2CCOCC2)c(F)c1 [Compound 201, 2-[(3-fluoro-4-morpholino)phenylamino]-6-(piperazin-1-yl)-3-nitropyridine] |  |  | 86 | 118 % of Control | 95
O=[N+]([O-])c1ccc(N2CCNCC2)nc1Nc1ccc(N2CCSCC2)c(F)c1 [Compound 213, 2-[(3-fluoro-4-thiomorpholino)phenylamino]-6-(piperazin-1-yl)-3-nitropyridine] |  |  | 94 | 121 % of Control | 95
CNc1ccc([N+](=O)[O-])c(Nc2ccc(N3CCNCC3)c(F)c2)n1 [Compound 215, 2-[(3-fluoro-4-piperazino)phenylamino]-6-(methylamino)-3-nitropyridine] |  |  | 91 | 125 % of Control | 104
CC(C)Nc1ccc([N+](=O)[O-])c(Nc2ccc(N3CCNCC3)c(F)c2)n1 [Compound 216, 2-[(3-fluoro-4-piperazino)phenylamino]-6-(isopropylamino)-3-nitropyridine] |  |  | 93 | 112 % of Control | 92
CC(C)CNc1ccc([N+](=O)[O-])c(Nc2ccc(N3CCNCC3)c(F)c2)n1 [Compound 217, 2-[(3-fluoro-4-piperazino)phenylamino]-6-(isobutylamino)-3-nitropyridine] |  |  | 94 | 119 % of Control | 92
CNc1ccc([N+](=O)[O-])c(Nc2ccc(N3CCCCC3)c(F)c2)n1 [Compound 223, 2-[(3-fluoro-4-piperidino)phenylamino]-6-(methylamino)-3-nitropyridine] |  |  | 82 | 247 % of Control | 100
